Positions count from the first letter of the chain named.
What was measured:
[1] = tested on: brain glutamate receptors (synaptic membranes); test: [3H]glutamate binding to mouse brain synaptic membranes in vitro; conditions: for effect on glutamate binding to synaptic membrane preparations: in vitro, without glycine
Procedure: Binding Studies—Synaptic membranes (100 μg protein) were isolated (Y. H. Lee et al., J. Neurosci. Res. 40, 797-806 (1995)) form whole brain homogenate of male Swiss Webster mice and were incubated in 0.1 mM L-glutamate for 30 minutes at 25° C. After addition of 50 nM of [^3H]glutamate, incubation was continued for an additional 45 minutes. Reactions were terminated by centrifugation at 4° C. to separate membrane-bound from free radioactivity. […] The rate (k) and maximum percent blockage of glutamate binding (M) by DETC-MeSO (1) during the incubation time (t) was determined by fitting the equation [% inhibition]=M(1−e^−kh) to these day by use of the program Grafit (Erithicus Software Ltd.). This equation was derived for first-order inactivation by a group specific reagent that gives a partial effect. If “A” is the percent of binding activity that remains after extensive exposure (t=of the receptor to excess DETC-MeSO, then M=100−A)e^−kh+A; substituting (100−M) for “A” and [100−% inhibition] for “a” in this equation gives the one employed for purposes of data analyses. […] A second equation was employed in the analysis of binding data that defines partial, irreversible inactivation of two distinct groups of receptors [% inhibition]=M1(1−e^−k1^IT)+M2(1−e^−k1^IT), where M1 and M2 are the maximum amount of inhibition obtained for complete modification of each receptor population and k1 and k2 are the rate constants for these modifications, respectively.
Six determinations of the effect of DETC-MeSO were made at each concentration tested (1, 5, 10, 50, 100, 200, and 1000 μM) and the average value is shown with error bars for one standard deviation.

[2] = target: T1, mouse liver low Km ALDH (Mus musculus, UniProt P47738); test: In vivo inhibition of mouse liver aldehyde dehydrogenase; conditions: mouse; 30 μmol/kg intravenous, mice
T1 construct: Liver aldehyde dehydrogenase was extracted and assayed as previously described; from tissue; host or cells: liver of treated mice
T1 sequence (P47738 20-519): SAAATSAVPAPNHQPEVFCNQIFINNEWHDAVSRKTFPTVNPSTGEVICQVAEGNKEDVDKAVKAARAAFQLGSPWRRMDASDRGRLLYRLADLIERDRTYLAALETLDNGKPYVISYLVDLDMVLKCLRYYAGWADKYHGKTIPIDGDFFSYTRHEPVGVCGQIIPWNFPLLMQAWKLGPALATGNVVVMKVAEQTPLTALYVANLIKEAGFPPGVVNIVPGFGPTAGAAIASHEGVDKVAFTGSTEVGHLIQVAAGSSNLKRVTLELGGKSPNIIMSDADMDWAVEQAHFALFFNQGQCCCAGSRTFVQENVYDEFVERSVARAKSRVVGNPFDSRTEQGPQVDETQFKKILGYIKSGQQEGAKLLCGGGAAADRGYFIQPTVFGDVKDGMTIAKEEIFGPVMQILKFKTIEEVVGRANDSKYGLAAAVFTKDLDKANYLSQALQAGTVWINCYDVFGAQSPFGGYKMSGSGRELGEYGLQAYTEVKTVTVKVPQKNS
Procedure: Reagents—DETC-MeSO was synthesized by the method of Hart and Faiman (B. W. Hart et al., Biochem. Pharmacol.), 43, 403-406 (1992). Carbamoylated glutathione, S-(N,N-diethylcarbamoyl)glutathione (DETC-GS), was prepared essentially as described by Jin et al. (L. Jin, supra). The structures and purity of DETC-MeSO and DETC-GS were confirmed by 300 MHz NMR and FAB-tandem mass spectrometry. A QE300 NMR spectrometer (General Electric, Fremont, Calif.) and Autospec-Q Tandem Hybrid mass spectrometer (Fiscons/VG Analytical Limited, Manchester, England) were employed for these analyses. Liver aldehyde dehydrogenase was extracted and assayed as previously described (B. W. Hart et al., supra). MetSOX monosodium L-glutamate, glycine, glutathione, and NMDA were purchased from Sigma Chemical Company (St. Louis, Mo.). L-[3-^3H]Glutamate (46 Ci/mmol) was obtained from Amerisham Life Science (Buckinghamshire, England).

[3] = tested on: ALDH2; test: In vitro inactivation of aldehyde dehydrogenase; type: biochemical; conditions: reversible or irreversible
Procedure: To test whether the protective effect of DETC-MeSO in hyperbaric O2-induced convulsions in mice could be due to inhibition of succinic semi-aldehyde dehydrogenase (SSA DH), mechanistically related to ALDH2, the sensitivity of SSA DH to inactivation by DETC-MeSO was determined. Potentially, inhibition of SSA DH in brain could offset the build up of ammonia known to occur and produce more GABA. In vitro both ALDH2 and SSA DH are inactivated by DETC-MeSO at 47 M-1 s-1 and 300 M-1 s-1, respectively.

[4] = tested on: brain glutamate receptors (synaptic membranes); test: Glutamate binding to synaptic membranes isolated from treated mice; type: in vivo, mouse; conditions: 30 μmol/kg intravenous, mice
Procedure: Binding Studies—Synaptic membranes (100 μg protein) were isolated (Y. H. Lee et al., J. Neurosci. Res. 40, 797-806 (1995)) form whole brain homogenate of male Swiss Webster mice and were incubated in 0.1 mM L-glutamate for 30 minutes at 25° C. After addition of 50 nM of [^3H]glutamate, incubation was continued for an additional 45 minutes. Reactions were terminated by centrifugation at 4° C. to separate membrane-bound from free radioactivity. Nonspecific binding (radioactivity bound in the presence of 0.5 mM unlabeled glutamate) averages: 20-30% of total radioactivity bound. The rate (k) and maximum percent blockage of glutamate binding (M) by DETC-MeSO (1) during the incubation time (t) was determined by fitting the equation [% inhibition]=M(1−e^−kh) to these day by use of the program Grafit (Erithicus Software Ltd.). This equation was derived for first-order inactivation by a group specific reagent that gives a partial effect. If “A” is the percent of binding activity that remains after extensive exposure (t=of the receptor to excess DETC-MeSO, then M=100−A)e^−kh+A; substituting (100−M) for “A” and [100−% inhibition] for “a” in this equation gives the one employed for purposes of data analyses. […] A second equation was employed in the analysis of binding data that defines partial, irreversible inactivation of two distinct groups of receptors [% inhibition]=M1(1−e^−k1^IT)+M2(1−e^−k1^IT), where M1 and M2 are the maximum amount of inhibition obtained for complete modification of each receptor population and k1 and k2 are the rate constants for these modifications, respectively.
Synaptic membranes were prepared from the brains of mice injected with DETC-MeSO (5.2 mg/kg, i.p.). The ability of synaptic membrane preparations isolated from DETC-MeSO-treated mice to bind glutamate was compared with similar preparations isolated from control animals. FIG. 3(A) illustrates the results obtained from synaptic membranes prepared from brains of mice killed two hours after a single dose of DETC-MeSO, or two hours after the last injection of multiple consecutive doses (5.2 mg/kg, i.p., daily for seven days). Either single or multiple dosing with DETC-MeSO reduced the capacity of synaptic membranes to bind glutamate by approximately 50%, the maximum effect obtained in vitro (FIG. 3). Each bar represents the average of results obtained from four animals and the error bars are for one standard deviation.

[5] = Carbamoylation of glutathione by DETC-MeSO under physiological conditions; conditions: under physiological conditions
Excerpt: This rate of reaction was approximate an order of magnitude faster than that of the more familiar α-haloketone functionality.

[6] = target: T2, rat liver mitochondrial low Km ALDH (Rattus norvegicus, UniProt P11884); test: Liver aldehyde dehydrogenase determined in vivo; conditions: intraperitoneal (IP), liver taken eight hours later
T2 construct: differential centrifugation carried out to isolate the mitochondrial faction; from tissue; host or cells: liver mitochondria of male Sprague-Dawley derived rats
T2 sequence (P11884 20-519): T1 sequence (P47738 20-519) with H13Q, R34K, R67Q, G237D, N313D, D422N
Procedure: To determine if a compound of formula (I) can inhibit aldehyde dehydrogenase activity in vivo, doses of DETC-Me SO (1.3 mg/kg, 2.6 mg/kg, 5.2 mg/kg, 10.3 mg/kg and 20.6 mg/kg), were administered to male Sprague Dawley derived rats weighing 200-400 g. The rats were bred from a resident colony maintained in the Animal Care Unit at the University of Kansas. Rats were maintained on a 12-hour lights cycle with access to food and water ad lib until the night before an experiment, at which time food was removed. Animals were fasted for 12 hours prior to drug administration.
All experiments were carried out in the morning. Rats were treated with the doses of DETC-Me SO or DETC-Me described above, which were dissolved in polyethylene glycol 200. Eight hours later, the rats were anesthetized with carbon-dioxide and then decapitated. The liver was quickly removed and the low Km aldehyde dehydrogenase determined. Control rats were treated with […] vehicle only, and each control data point also represents an average of four rats.
The liver from drug-treated and control rats was homogenized in 0.25 M sucrose and differential centrifugation was carried out to isolate the mitochondrial fraction. The mitochondria were solubilized with sodium deoxycholate, and mitochondrial low Km and total (high and low) aldehyde dehydrogenase activity determined by the method of S. O. C. Tottmar et al., cited above.

[7] = target: T2, rat liver mitochondrial low Km ALDH; test: In vitro inhibition of rat liver mitochondrial low Km aldehyde dehydrogenase (isolated mitochondria); type: biochemical; conditions: one hour incubation
Procedure: To determine whether a compound of formula (I) can inhibit low Km aldehyde dehydrogenase, an amount of the compound is added to isolated mitochondria. To prepare isolated mitochondria, male Sprague-Dawley derived rats weighing 200-400 g were anesthetized with carbon dioxide and then decapitated. The livers from untreated rats were homogenized in 0.25 M sucrose and differential centrifugation carried out to isolate the mitochondrial faction. The mitochondria were solubilized with sodium deoxycholate, and mitochondrial low Km ALDH activity determined by the method of S. O. C. Tottmar et al., Biochem. J. 135, 577 (1973).
Mitochondria were isolated from the liver of untreated rats and resuspended in 0.1 M phosphate buffer (pH=7.4). Incubations contained 2 mg of mitochondrial protein, to which was added DETC-Me SO at 0.2 μM, 2.0 μM, 20 μM or 200 μM, or DDTC-Me SO at 0.5 μM, 2.5 μM, 10 μM; 25 μM, 50 μM or 100 μM. The DETC-Me SO or DDTC-Me SO was dissolved in ethanol and the incubations carried out for one hour. Control incubations contained ethanol alone.
At the end of the incubation, the mitochondria were isolated by centrifugation, resuspended in 0.25 M sucrose buffer and solubilized with deoxycholate. Low Km ALDH activity was determined by the method of S. O. C. Tottmar et. al., cited above.

For CN[C@H](CC(=O)O)C(=O)O [NMDA, N-methyl-D-asparate, reference compound], the “reversible blockage of glutamate binding” value ([1]; 0.5 mM, in the presence of glycine (0.1 mM)) was 32±2% and the “effect on glutamate binding to synaptic membrane preparations” value (“effect on glutamate binding” for short) [1] was “does not block glutamate binding”.
In the case of CCN(CC)C(=O)SC[C@H](NC(=O)CC[C@H](N)C(=O)O)C(=O)NCC(=O)O [DETC-GS, S-(N,N-diethylcarbamoyl)glutathione], the inhibition at 30 µmol/kg [2] is reported as 30.1 ± 1%, the “effect on aldehyde dehydrogenase in vitro” value [3] is reported as “no effect” and the “effect on glutamate binding” value [1] is reported as “reversibly blocked”. For the same molecule, the “irreversible brain glutamate receptor blockage” value [4] was 26.9±4.3% and the “stability of the carbamoylated glutathione” value [5] was “relatively stable”.
With “oxidized glutathione [GSSG, reference compound]” the “effect on glutamate binding” value [1] was “reversibly blocked”.
With CCN(CC)C(=O)SC [DETC-Me, S-Methyl-N,N-Diethylthiolcarbamate] the “dose required to inhibit 50% of the low Km ALDH” value [6] was 6.5 mg/kg and the “inhibition of low Km ALDH” value ([7]; 200 μM) was 8%.
Work on CCN(CC)C(=S)[S+](C)[O-] (centres unmarked) [DDTC-Me SO, S-Methyl-N,N-Diethyldithiocarbamate Sulfoxide] yielded an IC50 ([7]; 2 mg mitochondrial protein, read-out: concentration required for 50% inhibition) of about 15 µM.

— patent publication US20050037975A1, “Method for treatment of glutamate related disorders” (priority 1997, published 2005)
